These results are taken from PubChem BioAssay AID284 (DTP/NCI, 2004).

Values joined by “and” are separate entries in the source; they are usually repeats but may differ in a detail not shown here. Identical values can stand only once. Toxic doses and inconclusive results are not listed.

This assay has as its system BDF1 mice, L1210/MTX-resistant leukemia ip, survival T/C. In words: NCI In Vivo Anticancer Drug Screen. Data for tumor model L1210 Leukemia resistant to Methotrexate; NSC 740 (intraperitoneal) in B6D2F1 (BDF1) mice. To be noted: endpoint: mean survival time, higher = longer survival. As for the experimental part: The antitumor activity of compounds was measured in mice bearing transplantable tumors. Survival or tumor size were measured and the results are expressed as the measurement made in the treated group (T) divided by the measurement made in the vehicle treated control group (C). The tumor model used in this assay is L1210 Leukemia resistant to Methotrexate; NSC 740 (intraperitoneal) in B6D2F1 (BDF1) mice

[1] abbreviates: dose: 25.0 mg/kg/injection, schedule: Q01DX010 (ip), vehicle: saline.
The mark [2] stands for this setting: dose: 50.0 mg/kg/injection, schedule: Q01DX010 (ip), vehicle: saline.
The mark [3] stands for this setting: dose: 100.0 mg/kg/injection, schedule: Q01DX010 (ip), vehicle: saline.
The mark [4] stands for this setting: dose: 200.0 mg/kg/injection, schedule: Q01DX010 (ip), vehicle: saline.
Setting [5] is: dose: 50.0 mg/kg/injection, schedule: Q01DX Z (ip), vehicle: carboxymethylcellulose (CMC).
The mark [6] stands for this setting: dose: 100.0 mg/kg/injection, schedule: Q01DX Z (ip), vehicle: carboxymethylcellulose (CMC).

As to `O=C(Nc1ccc(C2=NCCN2)cc1)c1ccc(C(=O)Nc2ccc(C3=NCCN3)cc2)c(Cl)c1`, the T/C (dose: 1.9 mg/kg/injection, schedule: Q01DX Z (ip), vehicle: other) was 88 % of control; the T/C (dose: 2.0 mg/kg/injection, schedule: Q01DX010 (ip), vehicle: other) is 122 % of control; the T/C (dose: 3.8 mg/kg/injection, schedule: Q01DX Z (ip), vehicle: other) is 94 % of control; the T/C (dose: 7.5 mg/kg/injection, schedule: Q01DX Z (ip), vehicle: other) is 97 % of control; the T/C (dose: 8.0 mg/kg/injection, schedule: Q01DX010 (ip), vehicle: other) is 170 % of control; the T/C (dose: 8.5 mg/kg/injection, schedule: Q02DX010 (ip), vehicle: carboxymethylcellulose (CMC)) was 123 % of control. The T/C by setting is: (dose: 10.0 mg/kg/injection, schedule: Q01DX Z (ip), vehicle: saline) 118 % of control and 110 % of control; (dose: 15.0 mg/kg/injection, schedule: Q01DX Z (ip), vehicle: other) 97 % of control; (dose: 16.0 mg/kg/injection, schedule: Q01DX010 (ip), vehicle: other) 177 % of control and 221 % of control; (dose: 20.0 mg/kg/injection, schedule: Q01DX Z (ip), vehicle: other) 124 % of control; (dose: 30.0 mg/kg/injection, schedule: Q01DX Z (ip), vehicle: other) 101 % of control; (dose: 30.0 mg/kg/injection, schedule: Q02DX010 (ip), vehicle: carboxymethylcellulose (CMC)) 192 % of control. Besides, the T/C is 250 % of control and 274 % of control (dose: 32.0 mg/kg/injection, schedule: Q01DX010 (ip), vehicle: other); 95 % of control (dose: 40.0 mg/kg/injection, schedule: Q01DX Z (ip), vehicle: other); 190 % of control (dose: 45.0 mg/kg/injection, schedule: Q02DX010 (ip), vehicle: carboxymethylcellulose (CMC)); 91 % of control (dose: 80.0 mg/kg/injection, schedule: Q01DX Z (ip), vehicle: other); 88 % of control (dose: 80.0 mg/kg/injection, schedule: Q01DX Z (ip), vehicle: saline).

With `O=c1[nH]c(=O)n(C2CC(O)C(CO)O2)cc1Br` (stereo not drawn), the T/C reads like this: (dose: 3.75 mg/kg/injection, schedule: Q01DX Z (ip), vehicle: carboxymethylcellulose (CMC)) 93 % of control; (dose: 7.5 mg/kg/injection, schedule: Q01DX Z (ip), vehicle: carboxymethylcellulose (CMC)) 120 % of control; (dose: 15.0 mg/kg/injection, schedule: Q01DX Z (ip), vehicle: carboxymethylcellulose (CMC)) 113 % of control; (dose: 30.0 mg/kg/injection, schedule: Q01DX Z (ip), vehicle: carboxymethylcellulose (CMC)) 104 % of control.

Consider `O=C(Nc1ccc(NC2=NCCN2)cc1)c1ccc(C(=O)Nc2ccc(NC3=NCCN3)cc2)cc1`, for which the T/C reads like this: (dose: 2.0 mg/kg/injection, schedule: Q01DX010 (ip), vehicle: saline) 167 % of control and 219 % of control; (dose: 4.0 mg/kg/injection, schedule: Q01DX010 (ip), vehicle: saline) 248 % of control and 257 % of control; (dose: 8.0 mg/kg/injection, schedule: Q01DX010 (ip), vehicle: saline) 188 % of control and 243 % of control; (dose: 16.0 mg/kg/injection, schedule: Q01DX010 (ip), vehicle: saline) 101 % of control and 106 % of control.

For `O[C@H](CN1CC1)[C@@H](O)CN1CC1`, the T/C (dose: 0.01 mg/kg/injection, schedule: Q01DX Z (ip), vehicle: saline) is 99 % of control; the T/C (dose: 0.02 mg/kg/injection, schedule: Q01DX Z (ip), vehicle: saline) was 105 % of control; the T/C (dose: 0.37 mg/kg/injection, schedule: Q01DX Z (ip), vehicle: saline) is 151 % of control.

For the compound `O=C1C(NC(=O)C2CCCCC2)=C(N2CC2)C(=O)C(NC(=O)C2CCCCC2)=C1N1CC1`, the T/C (dose: 11.0 mg/kg/injection, schedule: Q01DX010 (ip), vehicle: saline) is 89 % of control; the T/C (dose: 22.0 mg/kg/injection, schedule: Q01DX010 (ip), vehicle: saline) was 101 % of control; the T/C under setting [1] was 112 % of control; the T/C (dose: 44.0 mg/kg/injection, schedule: Q01DX010 (ip), vehicle: saline) is 98 % of control; the T/C under setting [2] was 108 % of control; the T/C (dose: 88.0 mg/kg/injection, schedule: Q01DX010 (ip), vehicle: saline) is 95 % of control. The T/C under setting [3] was 109 % of control and the T/C under setting [4] is 109 % of control.

As to `Cn1c(O)c(N=NC(N)=S)c2ccccc21`, the T/C under setting [5] is 96 % of control and the T/C under setting [6] was 86 % of control.

For `Nc1ncnc2[nH]ncc12`, the T/C is, setting by setting: (dose: 1.5 mg/kg/injection, schedule: Q01DX010 (ip), vehicle: saline) 91 % of control and 107 % of control; (dose: 3.0 mg/kg/injection, schedule: Q01DX010 (ip), vehicle: saline) 96 % of control and 102 % of control; (dose: 6.0 mg/kg/injection, schedule: Q01DX010 (ip), vehicle: saline) 99 % of control and 103 % of control; (dose: 12.0 mg/kg/injection, schedule: Q01DX010 (ip), vehicle: saline) 89 % of control.

Regarding `N#CCSc1ncnc2nc[nH]c12`, the T/C reads like this: (dose: 25.0 mg/kg/injection, schedule: Q01DX Z (ip), vehicle: carboxymethylcellulose (CMC)) 101 % of control; under setting [5], 120 % of control; under setting [6], 111 % of control.

Take `CN(C)c1nc(N(C)C)nc(N(C)C)n1`: the T/C runs as follows: (dose: 0.5 mg/kg/injection, schedule: Q01DX Z (ip), vehicle: other) 93 % of control; (dose: 1.0 mg/kg/injection, schedule: Q01DX Z (ip), vehicle: other) 103 % of control; (dose: 4.0 mg/kg/injection, schedule: Q01DX Z (ip), vehicle: other) 109 % of control; (dose: 18.8 mg/kg/injection, schedule: Q01DX010 (ip), vehicle: saline) 109 % of control; (dose: 37.5 mg/kg/injection, schedule: Q01DX010 (ip), vehicle: saline) 105 % of control; (dose: 75.0 mg/kg/injection, schedule: Q01DX010 (ip), vehicle: saline) 93 % of control. Also, the T/C by setting is: (dose: 87.5 mg/kg/injection, schedule: Q01DX Z (ip), vehicle: other) 101 % of control; (dose: 150.0 mg/kg/injection, schedule: Q01DX010 (ip), vehicle: saline) 104 % of control; (dose: 175.0 mg/kg/injection, schedule: Q01DX Z (ip), vehicle: other) 94 % of control.

On to `C[C@H](N)C(=O)N[C@@H]1[C@H]2C(=C(O)C[C@@H](O)[C@@H]2O)C(=O)O[C@@H]1C`, for which the T/C (dose: 500.0 mg/kg/injection, schedule: Q01DX Z (ip), vehicle: saline) is 120 % of control; the T/C (dose: 600.0 mg/kg/injection, schedule: Q01DX Z (ip), vehicle: saline) is 174 % of control and 187 % of control; the T/C (dose: 1000.0 mg/kg/injection, schedule: Q01DX Z (ip), vehicle: saline) is 102 % of control and 110 % of control; the T/C (dose: 1200.0 mg/kg/injection, schedule: Q01DX Z (ip), vehicle: saline) is 121 % of control and 122 % of control.

As to `CCN(CC)CCNc1ccc(C)c2sc3ccccc3c(=O)c12`, the T/C was 89 % of control and 93 % of control (dose: 1.6 mg/kg/injection, schedule: Q01DX Z (ip), vehicle: methylcellulose (MC)); 93 % of control (dose: 3.2 mg/kg/injection, schedule: Q01DX Z (ip), vehicle: methylcellulose (MC)); 93 % of control (dose: 6.3 mg/kg/injection, schedule: Q01DX Z (ip), vehicle: methylcellulose (MC)); 112 % of control (dose: 20.0 mg/kg/injection, schedule: Q01DX Z (ip), vehicle: carboxymethylcellulose (CMC)); 159 % of control under setting [1]; 106 % of control (dose: 40.0 mg/kg/injection, schedule: Q01DX Z (ip), vehicle: carboxymethylcellulose (CMC)). The T/C reads like this: under setting [2], 124 % of control; (dose: 80.0 mg/kg/injection, schedule: Q01DX Z (ip), vehicle: carboxymethylcellulose (CMC)) 113 % of control; under setting [3], 213 % of control; under setting [4], 86 % of control.
